Active and inactive are the calls of the source.
Tests used:
Leucine aminopeptidase = molecular target: T1, Leucine aminopeptidase (Plasmodium falciparum 3D7, UniProt Q8IL11); assay: P. falciparum M17LAP inhibitors, primary screen, biochemical, fluorogenic H-Leu-NHMec substrate, 1536-well (AID 1619); format: functional
T1 sequence (Q8IL11 whole entry): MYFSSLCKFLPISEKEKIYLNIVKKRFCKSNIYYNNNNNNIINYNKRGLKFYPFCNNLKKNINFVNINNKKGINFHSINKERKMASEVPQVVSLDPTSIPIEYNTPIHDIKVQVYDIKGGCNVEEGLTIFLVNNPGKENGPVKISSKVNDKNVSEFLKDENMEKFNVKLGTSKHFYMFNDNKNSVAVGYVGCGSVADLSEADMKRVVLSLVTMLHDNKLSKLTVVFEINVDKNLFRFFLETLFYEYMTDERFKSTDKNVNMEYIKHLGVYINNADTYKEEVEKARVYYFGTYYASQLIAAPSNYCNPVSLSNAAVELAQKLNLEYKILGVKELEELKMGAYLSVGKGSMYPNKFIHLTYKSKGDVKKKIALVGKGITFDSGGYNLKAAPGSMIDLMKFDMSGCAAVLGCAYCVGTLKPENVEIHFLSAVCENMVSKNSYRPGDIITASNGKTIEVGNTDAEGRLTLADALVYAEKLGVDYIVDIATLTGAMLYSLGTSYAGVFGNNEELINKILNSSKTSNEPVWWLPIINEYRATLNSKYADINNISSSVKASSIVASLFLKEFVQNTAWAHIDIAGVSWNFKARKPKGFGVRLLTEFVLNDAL

[1] = molecular target: Induced myeloid leukemia cell differentiation protein Mcl-1 (Homo sapiens, UniProt Q07820); format: functional
H9c2 = assay: cells; format: functional, cell-based; conditions: Rattus norvegicus, H9c2, Myocardium;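 also: confirmatory concentration-response retest of ultra-high-throughput screening hits for modulation of myocardial damage; cell death induced by hydrogen peroxide oxidative stress; compound pretreatment for 60 min then peroxide exposure for 2 h; potency is for protecting the cells against peroxide damage rather than for killing them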
[2] = molecular target: T2, Mannose-6-phosphate isomerase (Homo sapiens, UniProt P34949); assay: MPI inhibition at elevated mannose 6-phosphate – biochemical, fluorescence intensity, high mannose 6-phosphate, primary screen (AID 1220)
T2 sequence (P34949 whole entry): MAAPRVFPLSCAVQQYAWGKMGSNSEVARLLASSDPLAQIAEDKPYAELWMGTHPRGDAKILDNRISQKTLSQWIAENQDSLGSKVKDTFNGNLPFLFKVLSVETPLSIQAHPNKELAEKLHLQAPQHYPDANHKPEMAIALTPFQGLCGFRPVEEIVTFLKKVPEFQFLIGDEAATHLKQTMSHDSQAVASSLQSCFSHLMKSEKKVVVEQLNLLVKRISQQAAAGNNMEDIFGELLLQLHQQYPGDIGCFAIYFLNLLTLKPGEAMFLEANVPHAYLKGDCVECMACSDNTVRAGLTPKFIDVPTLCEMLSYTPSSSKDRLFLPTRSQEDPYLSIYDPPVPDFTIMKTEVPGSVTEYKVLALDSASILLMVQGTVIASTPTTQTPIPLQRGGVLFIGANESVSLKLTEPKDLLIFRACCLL

[3] = molecular target: T3, Replicative DNA helicase DnaB (Mycobacterium tuberculosis, UniProt P9WMR3); assay: DnaB intein splicing inhibitors, dose response, biochemical, cell-free fluorescence (AID 449749); format: functional
T3 sequence (P9WMR3 whole entry): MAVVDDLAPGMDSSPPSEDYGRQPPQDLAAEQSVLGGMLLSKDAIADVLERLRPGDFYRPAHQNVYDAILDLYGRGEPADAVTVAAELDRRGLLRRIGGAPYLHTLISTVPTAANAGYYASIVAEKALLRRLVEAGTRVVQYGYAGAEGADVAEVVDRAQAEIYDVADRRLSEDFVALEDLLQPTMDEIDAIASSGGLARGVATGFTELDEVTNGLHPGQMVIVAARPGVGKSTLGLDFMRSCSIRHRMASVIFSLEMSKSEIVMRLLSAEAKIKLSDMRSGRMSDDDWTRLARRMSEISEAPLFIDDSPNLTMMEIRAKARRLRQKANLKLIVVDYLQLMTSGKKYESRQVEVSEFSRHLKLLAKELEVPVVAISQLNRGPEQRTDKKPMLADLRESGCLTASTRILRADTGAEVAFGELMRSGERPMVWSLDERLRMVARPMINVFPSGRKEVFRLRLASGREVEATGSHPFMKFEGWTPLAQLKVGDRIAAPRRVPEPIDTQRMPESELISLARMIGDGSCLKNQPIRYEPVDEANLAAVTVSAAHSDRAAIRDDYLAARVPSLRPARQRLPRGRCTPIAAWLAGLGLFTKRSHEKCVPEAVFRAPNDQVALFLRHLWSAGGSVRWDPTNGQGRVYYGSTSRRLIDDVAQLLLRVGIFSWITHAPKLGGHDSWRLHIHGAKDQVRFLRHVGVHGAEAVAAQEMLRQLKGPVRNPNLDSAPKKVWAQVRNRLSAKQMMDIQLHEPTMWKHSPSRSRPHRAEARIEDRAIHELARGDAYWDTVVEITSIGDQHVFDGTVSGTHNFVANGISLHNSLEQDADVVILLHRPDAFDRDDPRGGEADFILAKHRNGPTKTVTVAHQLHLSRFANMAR

[4] = molecular target: T4, Polyadenylate-binding protein 1 (Homo sapiens, UniProt P11940); assay: MLLE binding blockers, Cy5 peptide tracer – biochemical, fluorescence polarization, Cy5-PAM2 peptide, secondary, miRNA deadenylation inhibitor project, dose response (AID 602260); format: functional; conditions: read-out: IC50_Mean
Protein RecA = molecular target: T5, Protein RecA (Mycobacterium tuberculosis, UniProt P9WHJ3); assay: Fluorescence Cell-Free Homogeneous Dose Retest to Identify Inhibitors of RecA-Intein Splicing Activity. [Related pubchem assays (depositor defined):AID2097, AID2223, AID489010, AID492950]; format: functional
T5 sequence (P9WHJ3 whole entry): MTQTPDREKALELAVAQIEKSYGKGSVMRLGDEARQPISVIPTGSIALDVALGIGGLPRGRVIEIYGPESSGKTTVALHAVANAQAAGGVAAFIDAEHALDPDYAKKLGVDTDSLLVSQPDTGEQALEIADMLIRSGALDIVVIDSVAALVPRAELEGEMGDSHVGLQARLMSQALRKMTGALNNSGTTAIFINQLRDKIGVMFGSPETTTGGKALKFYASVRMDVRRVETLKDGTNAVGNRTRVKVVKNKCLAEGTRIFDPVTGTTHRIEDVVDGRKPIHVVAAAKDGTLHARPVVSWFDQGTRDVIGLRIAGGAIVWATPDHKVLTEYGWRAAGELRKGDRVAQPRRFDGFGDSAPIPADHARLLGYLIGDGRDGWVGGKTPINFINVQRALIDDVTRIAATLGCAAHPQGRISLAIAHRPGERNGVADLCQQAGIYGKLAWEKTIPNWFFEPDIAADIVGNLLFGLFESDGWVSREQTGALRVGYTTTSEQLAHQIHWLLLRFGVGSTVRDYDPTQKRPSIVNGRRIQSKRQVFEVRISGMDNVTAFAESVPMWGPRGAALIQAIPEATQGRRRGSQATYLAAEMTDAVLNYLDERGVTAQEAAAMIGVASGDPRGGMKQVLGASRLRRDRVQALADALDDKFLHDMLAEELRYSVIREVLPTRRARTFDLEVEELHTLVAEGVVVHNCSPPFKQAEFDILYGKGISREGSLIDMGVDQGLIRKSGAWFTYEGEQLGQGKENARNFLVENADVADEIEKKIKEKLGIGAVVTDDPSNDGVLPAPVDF

[5] = molecular target: T6, Ubiquitin-conjugating enzyme E2 N (Homo sapiens, UniProt P61088); format: functional;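 also: Dose-response confirmation in a TR-FRET assay detecting UBC13-driven polyubiquitin chain formation, inhibition measured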
T6 sequence (P61088 whole entry): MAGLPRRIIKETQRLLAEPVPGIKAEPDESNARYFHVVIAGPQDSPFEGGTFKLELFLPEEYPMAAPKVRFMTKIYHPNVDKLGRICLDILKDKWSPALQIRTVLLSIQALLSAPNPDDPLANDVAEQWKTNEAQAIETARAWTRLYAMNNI

[6] = molecular target: T4, Polyadenylate-binding protein 1; assay: MLLE domain peptide-binding blockers, IC50 – biochemical, fluorescence polarization, FITC-PAM2 peptide, dose response (AID 602259); format: functional; conditions: read-out: IC50_Mean
Fatty acid synthase [7] = molecular target: T7, Fatty acid synthase (Homo sapiens, UniProt P49327); assay: inhibition of human FAS-TE enzyme activity – biochemical, kinetic fluorescence intensity, dose response (AID 624326); format: functional;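 also: rate of fluorescence rise from hydrolysis of a fluorogenic O-methyl fluorescein ester substrate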
Fatty acid synthase [8] = molecular target: T7, Fatty acid synthase; assay: inhibition of human FAS-TE enzyme activity – biochemical, endpoint fluorescence intensity, uHTS hits, dose response (AID 624327); format: functional;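 also: fluorescence from hydrolysis of an O-methyl fluorescein acyl ester substrate by the enzyme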
[9] = Luminescence Cell-Based Dose Retest to Confirm Inhibitors of Cancer Stem Cells. [Related pubchem assays (depositor defined):AID2717, AID2721]; format: functional; conditions: Homo sapiens
P388/ADR = assay: cells; format: functional; conditions: Mus musculus
SN12K1 = assay: cells; format: functional; conditions: Homo sapiens
P388 = assay: cells; format: functional; conditions: Mus musculus
[10] = OVCAR-3 cell viability loss – plate reader, dry powder samples, PAX8 inhibitor project, dose response (AID 743044); format: functional, cell-based
Paired box protein Pax-8 = Paired box protein Pax-8 (Homo sapiens, UniProt Q06710); assay: PAX8 transcriptional activity inhibition in RMG-I – RMG-I cells, luciferase, cherry-pick, dose response (AID 687027); format: functional, cell-based;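 also: luciferase reporter driven by Pax8 target thyroperoxidase promoter measured by SteadyGlo luminescence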
[11] = OVCAR8 cell viability loss – plate reader, dry powder samples, PAX8 project, dose response (AID 743197); format: functional, cell-based; conditions: OVCAR-8

Sequence of Induced myeloid leukemia cell differentiation protein Mcl-1 (Q07820 whole entry): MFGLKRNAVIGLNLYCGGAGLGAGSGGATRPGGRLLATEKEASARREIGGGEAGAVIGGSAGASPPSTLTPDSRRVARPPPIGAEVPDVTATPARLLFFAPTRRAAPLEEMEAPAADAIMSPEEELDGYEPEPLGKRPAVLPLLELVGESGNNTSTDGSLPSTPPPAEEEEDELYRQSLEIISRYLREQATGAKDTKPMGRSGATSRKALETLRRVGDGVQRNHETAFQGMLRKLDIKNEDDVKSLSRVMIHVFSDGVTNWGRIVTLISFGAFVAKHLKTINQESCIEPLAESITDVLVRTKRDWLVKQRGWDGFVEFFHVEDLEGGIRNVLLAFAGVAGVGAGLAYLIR
T4 sequence (P11940 whole entry): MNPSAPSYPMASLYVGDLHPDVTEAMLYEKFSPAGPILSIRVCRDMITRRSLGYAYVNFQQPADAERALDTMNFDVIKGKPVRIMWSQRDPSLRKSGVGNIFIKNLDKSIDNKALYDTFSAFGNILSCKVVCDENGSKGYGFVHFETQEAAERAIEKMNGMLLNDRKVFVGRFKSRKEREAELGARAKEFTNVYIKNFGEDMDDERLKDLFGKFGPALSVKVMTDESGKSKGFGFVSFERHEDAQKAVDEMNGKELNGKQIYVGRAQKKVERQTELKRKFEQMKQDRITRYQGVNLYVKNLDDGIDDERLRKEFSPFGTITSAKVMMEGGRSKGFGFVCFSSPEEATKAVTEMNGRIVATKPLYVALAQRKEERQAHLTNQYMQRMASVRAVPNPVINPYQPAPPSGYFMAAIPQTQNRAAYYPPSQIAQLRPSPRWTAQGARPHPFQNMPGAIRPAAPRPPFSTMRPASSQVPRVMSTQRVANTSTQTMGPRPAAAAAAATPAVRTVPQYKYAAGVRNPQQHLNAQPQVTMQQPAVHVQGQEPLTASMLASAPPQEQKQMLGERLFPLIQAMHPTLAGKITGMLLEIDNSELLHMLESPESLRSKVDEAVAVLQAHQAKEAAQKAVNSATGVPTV
T7 sequence (P49327 whole entry): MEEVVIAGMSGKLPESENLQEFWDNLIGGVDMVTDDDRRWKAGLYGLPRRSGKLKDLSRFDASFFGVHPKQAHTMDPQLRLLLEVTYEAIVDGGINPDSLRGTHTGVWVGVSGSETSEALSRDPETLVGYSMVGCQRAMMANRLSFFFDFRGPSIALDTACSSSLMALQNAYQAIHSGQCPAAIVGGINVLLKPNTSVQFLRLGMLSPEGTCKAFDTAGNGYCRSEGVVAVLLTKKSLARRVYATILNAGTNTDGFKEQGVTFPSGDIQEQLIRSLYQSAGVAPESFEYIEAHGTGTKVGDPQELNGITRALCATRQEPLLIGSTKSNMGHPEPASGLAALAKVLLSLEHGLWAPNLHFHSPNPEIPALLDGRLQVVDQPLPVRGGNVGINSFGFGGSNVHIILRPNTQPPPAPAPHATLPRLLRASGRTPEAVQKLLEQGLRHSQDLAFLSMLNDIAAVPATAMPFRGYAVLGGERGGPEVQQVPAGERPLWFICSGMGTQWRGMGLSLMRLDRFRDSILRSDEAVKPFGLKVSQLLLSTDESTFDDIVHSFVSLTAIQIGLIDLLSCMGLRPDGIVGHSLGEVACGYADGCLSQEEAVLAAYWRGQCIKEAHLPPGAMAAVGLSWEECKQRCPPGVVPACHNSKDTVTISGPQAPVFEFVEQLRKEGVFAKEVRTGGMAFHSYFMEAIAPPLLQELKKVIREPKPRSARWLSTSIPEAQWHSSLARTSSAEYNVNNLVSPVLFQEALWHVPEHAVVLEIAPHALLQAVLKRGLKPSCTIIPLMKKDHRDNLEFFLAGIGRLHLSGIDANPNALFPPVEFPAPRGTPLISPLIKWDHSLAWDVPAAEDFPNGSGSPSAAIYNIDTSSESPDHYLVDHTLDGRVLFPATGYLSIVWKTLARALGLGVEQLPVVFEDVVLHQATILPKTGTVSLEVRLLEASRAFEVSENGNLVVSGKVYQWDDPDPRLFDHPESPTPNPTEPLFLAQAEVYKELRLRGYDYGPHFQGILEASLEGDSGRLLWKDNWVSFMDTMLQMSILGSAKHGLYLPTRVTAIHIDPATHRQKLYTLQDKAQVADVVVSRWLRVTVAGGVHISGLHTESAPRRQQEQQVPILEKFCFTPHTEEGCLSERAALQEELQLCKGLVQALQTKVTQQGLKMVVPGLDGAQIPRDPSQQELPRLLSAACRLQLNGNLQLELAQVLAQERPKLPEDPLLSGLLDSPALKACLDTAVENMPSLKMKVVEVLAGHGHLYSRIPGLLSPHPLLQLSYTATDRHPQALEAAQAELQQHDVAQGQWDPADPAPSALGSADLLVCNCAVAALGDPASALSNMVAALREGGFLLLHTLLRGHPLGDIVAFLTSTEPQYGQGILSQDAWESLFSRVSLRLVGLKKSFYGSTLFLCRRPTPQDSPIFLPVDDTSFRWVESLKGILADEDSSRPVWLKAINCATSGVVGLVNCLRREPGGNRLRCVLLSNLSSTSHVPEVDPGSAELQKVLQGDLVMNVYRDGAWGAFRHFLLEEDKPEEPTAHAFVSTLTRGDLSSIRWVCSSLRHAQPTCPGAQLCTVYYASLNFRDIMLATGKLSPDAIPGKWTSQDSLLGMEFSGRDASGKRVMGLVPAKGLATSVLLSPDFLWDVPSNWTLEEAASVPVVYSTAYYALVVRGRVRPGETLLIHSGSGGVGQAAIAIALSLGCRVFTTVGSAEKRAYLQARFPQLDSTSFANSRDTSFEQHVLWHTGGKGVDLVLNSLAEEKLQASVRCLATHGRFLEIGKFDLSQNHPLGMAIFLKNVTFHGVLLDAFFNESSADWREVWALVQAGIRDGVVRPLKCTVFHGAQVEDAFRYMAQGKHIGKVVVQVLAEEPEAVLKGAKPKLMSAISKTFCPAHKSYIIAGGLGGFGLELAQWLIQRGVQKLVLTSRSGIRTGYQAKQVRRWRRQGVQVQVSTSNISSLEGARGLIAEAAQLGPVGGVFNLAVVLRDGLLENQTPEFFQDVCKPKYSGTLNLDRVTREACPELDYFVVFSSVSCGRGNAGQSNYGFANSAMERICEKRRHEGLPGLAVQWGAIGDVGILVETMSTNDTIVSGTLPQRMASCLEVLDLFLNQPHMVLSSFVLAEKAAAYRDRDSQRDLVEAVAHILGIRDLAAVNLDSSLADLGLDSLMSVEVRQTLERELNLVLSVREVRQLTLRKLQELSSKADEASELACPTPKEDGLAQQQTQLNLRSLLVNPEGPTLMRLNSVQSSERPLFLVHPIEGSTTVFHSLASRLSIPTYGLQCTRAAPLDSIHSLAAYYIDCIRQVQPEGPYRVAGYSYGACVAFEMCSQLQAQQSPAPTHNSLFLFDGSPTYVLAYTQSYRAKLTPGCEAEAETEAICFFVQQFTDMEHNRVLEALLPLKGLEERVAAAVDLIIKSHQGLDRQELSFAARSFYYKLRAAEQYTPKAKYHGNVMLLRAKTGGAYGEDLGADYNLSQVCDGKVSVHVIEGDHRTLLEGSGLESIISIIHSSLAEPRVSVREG
Sequence of Paired box protein Pax-8 (Q06710 whole entry): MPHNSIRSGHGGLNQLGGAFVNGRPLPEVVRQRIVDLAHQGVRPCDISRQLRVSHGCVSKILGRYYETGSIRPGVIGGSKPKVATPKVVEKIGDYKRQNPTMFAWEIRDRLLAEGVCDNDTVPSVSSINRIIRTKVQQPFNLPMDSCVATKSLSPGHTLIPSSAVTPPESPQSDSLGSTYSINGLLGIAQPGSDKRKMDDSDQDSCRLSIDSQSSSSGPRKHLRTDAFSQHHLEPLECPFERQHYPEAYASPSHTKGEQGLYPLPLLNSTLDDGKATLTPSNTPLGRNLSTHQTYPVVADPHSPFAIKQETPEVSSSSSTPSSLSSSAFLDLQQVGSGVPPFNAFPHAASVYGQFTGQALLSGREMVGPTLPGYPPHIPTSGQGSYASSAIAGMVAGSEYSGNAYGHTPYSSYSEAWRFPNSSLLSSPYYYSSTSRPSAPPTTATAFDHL

O=C(O)Cn1nnnc1SCC(=O)Nc1ccc(OC(F)(F)F)cc1
IC50 (Leucine aminopeptidase): 5.22 µM (active)

CC(C)Oc1ccc(C(CC(=O)O)NC(=O)CSc2nnc[nH]2)cc1 (stereo not given)
IC50 (Leucine aminopeptidase): 47.4 µM (active)

COc1ccc(NC(=O)CSc2ncnc3c2sc2ccccc23)c(OC)c1
IC50 [1]: 10.3 µM (not active)

CCCOc1ccc(C(=O)Nc2ccc(N(C)C)cc2)cc1
IC50 [1]: 3.27 µM (not active)

CCC(C)Nc1ncnc2c1cnn2Cc1ccc(Cl)cc1 (stereo not given)
IC50 (H9c2): > 79 µM (inactive)

Oc1ccc(N2CCN(c3ncnc4sc5c(c34)CCC5)CC2)cc1
IC50 [1]: 4.31 µM (active)

CNc1c([N+](=O)[O-])ccc2c1=NC1(CCCCC1)[N+]=2[O-]
IC50 [2]: > 50 µM (not active)

O=C(/C=C\c1cn(-c2ccccc2)nc1-c1ccc2c(c1)OCCO2)N1CCOCC1
IC50 (H9c2): > 79 µM (inactive)

CCN=C(S)N=Nc1c(O)[nH]c2ccc([N+](=O)[O-])cc12
AC50 [3]: > 380 µM (inactive)
IC50 [4]: > 66 µM (inactive)
EC50 (Protein RecA): 56.6 µM (active)
IC50 [5]: > 20 µM (inactive)
IC50 [6]: > 66 µM (inactive)

O=[N+]([O-])c1ccc(Sc2nnc(-c3ccccc3)[nH]2)nc1
IC50 (Fatty acid synthase [7]): 10.6 µM (active)
IC50 (Fatty acid synthase [8]): 10.9 µM (active)
IC50 (Leucine aminopeptidase): 31.5 µM (active)

CCOc1ccc(N2C(=O)CC(SCCN)C2=O)cc1 (stereo not given)
IC50 (Leucine aminopeptidase): 23.6 µM (active)

COc1cc(OC)cc(C(=O)Nc2ccc(C(=O)Nc3ccccc3OC)cc2)c1
IC50 (H9c2): > 79 µM (inactive)

O=C(COC(=O)c1cc(O)nc(O)n1)Nc1cccc(Cl)c1
IC50 [5]: > 20 µM (inactive)

O=C(Nc1cccc(/C=C/c2ccccn2)c1)c1ccc(-n2cncn2)cc1
IC50 (H9c2): 38.2 µM (inactive)

COc1cccc(-c2sc3ccccc3c2-c2ccc(OCCN3CCCCC3)cc2)c1
AC50 [9]: 1.43 µM (active)
IC50 [5]: > 20 µM (inactive)

COc1cc(/C=C/C(=O)OCC(=O)N2c3ccccc3NC(=O)C2(C)C)cc(OC)c1OC
IC50 (H9c2): > 79 µM (inactive)

COC1=C2C[C@@H](C)C[C@@H](OC)[C@@H](O)[C@H](C)/C=C(\C)[C@@H](OC(N)=O)[C@H](OC)/C=C\C=C(/C)C(=O)NC(=CC1=O)C2=O
GI50 (P388/ADR): 0.212 µM (active)
GI50 (SN12K1): 0.11 µM (active)
GI50 (P388): 0.015 µM (active)

C[C@H]1Cn2cnc(C(=O)N[C@@H](Cc3c[nH]c4ccccc34)C(=O)OC(C)(C)C)c2C(=O)N1
IC50 (H9c2): 18 µM (active)

O=C(CCl)NNC1=Nc2ccc(Cl)cc2SC1
GI50 (P388/ADR): 0.627 µM (active)
GI50 (SN12K1): 3.45 µM (inactive)
GI50 (P388): 0.236 µM (active)

CCCCCn1cc2c3c(cccc31)C1C=C(C)CN(C)[C@@H]1C2.Cc1ccc(C(=O)OC(C(=O)O)C(OC(=O)c2ccc(C)cc2)C(=O)O)cc1 (stereo not given)
GI50 (P388/ADR): 3.18 µM (inactive)
GI50 (SN12K1): 3.56 µM (inactive)
GI50 (P388): 2.63 µM (inactive)

N#C/C(=C\c1ccncc1)c1csc2ccccc12
GI50 (P388/ADR): 6.49 µM (inactive)
GI50 (SN12K1): 29.2 µM (inactive)
GI50 (P388): 19.1 µM (inactive)

C[C@@H]1CN([C@H](C)CO)C(=O)c2cc(NS(=O)(=O)c3ccc(F)cc3)ccc2O[C@@H](C)CCCCO[C@@H]1CN(C)CC1CCCCC1
AC50 [10]: 44 µM (active)
AC50 (Paired box protein Pax-8): 13 µM (active)
AC50 [11]: > 70 µM (inactive)

C[C@@H]1CCCCO[C@H](CN(C)C(=O)Nc2ccc(C(F)(F)F)cc2)[C@@H](C)CN([C@@H](C)CO)C(=O)c2cc(NC(=O)Nc3ccc(C(F)(F)F)cc3)ccc2O1
AC50 [10]: 19.6 µM (active)
AC50 (Paired box protein Pax-8): 2.32 µM (active)
AC50 [11]: 32.8 µM (active)

C/C=C1/C(=O)O[C@]23C=C[C@@H]4C(C(=O)OC)=CO[C@H](O[C@@H]12)[C@@H]43 [PLUMERICIN]
GI50 (P388/ADR): 0.0853 µM (active)
GI50 (SN12K1): 1.09 µM (active)
GI50 (P388): 0.105 µM (active)
